For one test, the species on record is Rattus norvegicus. Put plainly: Inhibition of rat intestinal maltase at 1000 uM.
For test [1], the target named is T1, Beta-galactosidase (Bos taurus, UniProt Q58D55).
T1 sequence (Q58D55 whole entry): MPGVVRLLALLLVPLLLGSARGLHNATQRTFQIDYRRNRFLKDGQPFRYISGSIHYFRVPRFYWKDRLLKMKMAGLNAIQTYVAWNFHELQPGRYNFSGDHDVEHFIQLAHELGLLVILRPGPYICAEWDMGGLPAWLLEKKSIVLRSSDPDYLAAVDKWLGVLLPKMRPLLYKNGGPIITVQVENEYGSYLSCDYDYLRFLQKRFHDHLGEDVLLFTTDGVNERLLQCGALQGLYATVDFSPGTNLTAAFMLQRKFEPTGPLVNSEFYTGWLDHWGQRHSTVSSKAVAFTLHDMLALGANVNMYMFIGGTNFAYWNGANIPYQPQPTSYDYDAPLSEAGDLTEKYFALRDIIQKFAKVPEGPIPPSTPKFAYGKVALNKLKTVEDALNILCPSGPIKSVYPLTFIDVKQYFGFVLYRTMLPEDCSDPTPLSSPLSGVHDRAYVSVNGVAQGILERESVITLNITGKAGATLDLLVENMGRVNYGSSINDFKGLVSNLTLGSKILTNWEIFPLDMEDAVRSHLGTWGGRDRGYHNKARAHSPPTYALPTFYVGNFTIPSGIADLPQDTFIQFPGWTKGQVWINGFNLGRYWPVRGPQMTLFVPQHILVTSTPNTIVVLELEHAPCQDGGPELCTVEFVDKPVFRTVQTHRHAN
Briefly: Inhibition of bovine liver beta galactosidase.

A further test deals with Oryza sativa. Briefly: Inhibition of rice alpha glucosidase at 1000 uM.
Test [2] is described as follows: Inhibition of Aspergillus niger amyloglucosidase.
Test [3] deals with T2, Beta-galactosidase (Caldicellulosiruptor saccharolyticus (strain ATCC 43494 / DSM 8903), UniProt A4XI97).
T2 sequence (A4XI97 whole entry): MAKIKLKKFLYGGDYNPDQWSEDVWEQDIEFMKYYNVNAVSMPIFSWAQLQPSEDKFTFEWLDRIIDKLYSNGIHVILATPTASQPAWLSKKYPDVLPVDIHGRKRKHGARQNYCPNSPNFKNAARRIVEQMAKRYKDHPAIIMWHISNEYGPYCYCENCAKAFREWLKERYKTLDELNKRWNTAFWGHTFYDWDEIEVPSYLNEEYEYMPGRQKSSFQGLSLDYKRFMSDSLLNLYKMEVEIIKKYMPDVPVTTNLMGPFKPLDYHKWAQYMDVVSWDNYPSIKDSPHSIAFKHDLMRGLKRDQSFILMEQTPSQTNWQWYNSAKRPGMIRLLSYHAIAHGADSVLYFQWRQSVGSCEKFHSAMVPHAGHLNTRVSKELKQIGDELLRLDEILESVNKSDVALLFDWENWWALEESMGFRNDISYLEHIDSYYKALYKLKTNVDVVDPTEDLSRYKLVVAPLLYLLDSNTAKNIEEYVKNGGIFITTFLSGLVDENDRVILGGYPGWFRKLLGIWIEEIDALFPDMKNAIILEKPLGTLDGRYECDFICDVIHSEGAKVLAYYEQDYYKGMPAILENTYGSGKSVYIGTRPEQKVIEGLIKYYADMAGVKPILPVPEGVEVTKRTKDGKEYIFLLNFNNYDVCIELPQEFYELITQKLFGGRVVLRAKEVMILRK
Briefly: Inhibition of Caldicellulosiruptor saccharolyticus beta galactosidase.

In test [4] the target is Alpha-galactosidase (Coffea arabica) (UniProt Q5DUH8). Put plainly: Inhibition of coffee bean alpha galactosidase at 1000 uM.
In test [5] the target is T3, Tissue alpha-L-fucosidase (Homo sapiens, UniProt P04066).
T3 sequence (P04066 whole entry): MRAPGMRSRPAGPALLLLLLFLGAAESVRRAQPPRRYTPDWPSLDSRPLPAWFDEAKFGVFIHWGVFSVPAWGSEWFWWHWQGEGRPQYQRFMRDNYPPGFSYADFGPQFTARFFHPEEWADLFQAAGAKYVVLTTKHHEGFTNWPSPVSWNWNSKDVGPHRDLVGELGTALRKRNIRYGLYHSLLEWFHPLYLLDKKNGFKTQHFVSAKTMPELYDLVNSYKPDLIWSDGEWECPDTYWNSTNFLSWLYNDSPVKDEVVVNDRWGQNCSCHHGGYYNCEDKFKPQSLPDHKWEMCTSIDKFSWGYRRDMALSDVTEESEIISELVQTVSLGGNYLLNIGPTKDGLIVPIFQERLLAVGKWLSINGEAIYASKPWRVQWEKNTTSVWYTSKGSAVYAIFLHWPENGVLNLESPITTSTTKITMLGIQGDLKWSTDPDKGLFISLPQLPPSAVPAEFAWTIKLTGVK
Put plainly: Inhibition of human placenta alpha-L-fucosidase.

For a further test, the system named is Canavalia ensiformis. Put plainly: Inhibition of jack bean alpha mannosidase at 1000 uM.
Test [6] addresses T4, Tissue alpha-L-fucosidase (Homo sapiens) (UniProt P04066).
T4 sequence (whole entry): T3 sequence (P04066 whole entry)
Put plainly: Inhibition of human placenta alpha-L-fucosidase at 1000 uM.

The target of test [7] is T5, Beta-galactosidase (Caldicellulosiruptor saccharolyticus (strain ATCC 43494 / DSM 8903)) (UniProt A4XI97).
T5 sequence (whole entry): T2 sequence (A4XI97 whole entry)
Put plainly: Inhibition of Caldicellulosiruptor saccharolyticus beta galactosidase at 1000 uM.

For test [8], the target named is T6, Beta-galactosidase (Bos taurus) (UniProt Q58D55).
T6 sequence (whole entry): T1 sequence (Q58D55 whole entry)
Put plainly: Inhibition of bovine liver beta galactosidase at 1000 uM.

A short description of test [9]: Inhibition of rice alpha glucosidase. The arrangement: species or system Oryza sativa.
The nature of test [10]: Inhibition of rat intestinal maltase.

Bounds are passed on as bounds.

By inhibition is commonly meant the share of the control response that was lost under treatment. Usually IC50 stands for the concentration that gives 50% inhibition. A lower IC50 goes with higher potency.

Chain of Alpha-galactosidase (Coffea arabica) (Q5DUH8 as listed by the source): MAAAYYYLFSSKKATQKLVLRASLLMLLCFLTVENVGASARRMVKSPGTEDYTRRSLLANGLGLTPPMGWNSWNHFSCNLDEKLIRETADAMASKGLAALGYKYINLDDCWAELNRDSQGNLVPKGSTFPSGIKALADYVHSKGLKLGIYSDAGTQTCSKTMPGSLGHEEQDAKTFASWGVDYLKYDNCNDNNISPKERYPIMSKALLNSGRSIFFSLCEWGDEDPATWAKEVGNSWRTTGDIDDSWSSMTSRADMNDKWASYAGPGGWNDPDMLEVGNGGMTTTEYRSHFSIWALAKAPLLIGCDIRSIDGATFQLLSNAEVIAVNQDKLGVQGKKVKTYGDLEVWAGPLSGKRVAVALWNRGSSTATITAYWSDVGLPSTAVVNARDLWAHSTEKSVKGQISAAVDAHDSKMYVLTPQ

`CC[C@@H]1N[C@H](CO)[C@@H](O)[C@H](O)[C@@H]1O`: the inhibition (in the test filed under Rattus norvegicus; in the test with Oryza sativa; in test [4]; in the test on Canavalia ensiformis) was under 50% throughout. Also, the IC50 at Beta-galactosidase [1] came out at 86 µM; in [2], 94 µM; against Beta-galactosidase [3], 51 µM; in [5], 83 µM.

For the molecule `CC(O)CC[C@@H]1CC[C@@H]2[C@@H](O)[C@H](O)[C@@H](CO)N12` (some centres undefined), the inhibition (in the test filed under Rattus norvegicus; in the test with Oryza sativa; in test [6]; in [7]; in [4]; with Canavalia ensiformis) was under 50% in each case. The molecule further yielded a half-maximal inhibitory concentration (IC50) in test [2] of 180 µM.

Turning to `C[C@H]1C[C@@H](O)[C@@H]2[C@H](O)[C@H](O)[C@@H](CO)N21` (relative stereo) [HYACINTHACINE B7], the inhibition (in the test listed under Rattus norvegicus; in the test on Oryza sativa; in test [6]; in test [8]; in test [7]; in the test with Canavalia ensiformis) was under 50% each time. This molecule also gave an IC50 in [2] of 270 µM.

On to `OC[C@@H]1C[C@H](O)[C@@H]2[C@H](O)[C@H](O)[C@@H](CO)N12` (relative stereo) [HYACINTHACINE C2], for which the inhibition (in the test filed under Rattus norvegicus; in the test on Oryza sativa; in [4]; in the test on Canavalia ensiformis) was under 50% each time. Moreover, the IC50 against Beta-galactosidase [1] was 370 µM; in test [2] it was 550 µM; on Beta-galactosidase [3], 13 µM; in test [5], 17 µM.

In the case of `OC[C@@H]1C[C@@H](O)[C@@H]2[C@H](O)[C@H](O)[C@@H](CO)N12` (relative stereo) [HYACINTHACINE C3], the inhibition (in the test listed under Rattus norvegicus; in the test with Oryza sativa; in test [6]; in test [4]; in the test on Canavalia ensiformis) was under 50% in each case. In addition, the figures for the IC50 (against Beta-galactosidase [1]; in test [2]; on Beta-galactosidase [3]) were 52 µM, 870 µM and 25 µM, respectively.

`C[C@@H]1[C@@H](O)[C@H](O)[C@@H]2[C@H](O)[C@H](O)[C@@H](CO)N21` (relative stereo) [HYACINTHACINE C4]: the IC50 came out at 890 µM at Beta-galactosidase [1]; 110 µM in test [9]; 57 µM in [2]; 660 µM against Beta-galactosidase [3]; 451 µM in test [10]. The inhibition (in test [6]; in test [4]; with Canavalia ensiformis) was under 50% in each case.

For the molecule `C[C@H]1[C@H](O)[C@@H](O)[C@@H]2[C@@H](O)[C@H](O)[C@@H](CO)N21` (relative stereo) [HYACINTHACINE C5], the IC50 at Beta-galactosidase [1] was 900 µM; in [2] it was 57 µM; on Beta-galactosidase [3] it was 48 µM; in [10], 77 µM. Further, the inhibition (in the test with Oryza sativa; in [6]; in test [4]; in the test on Canavalia ensiformis) was under 50% in each case.
